Experiment [1] relates to PMA-stimulated human neutrophils. Description: PMA-induced neutrophils' oxidative burst, oxidation of luminol (chemiluminescence). The experiment is classed as cell-based. The procedure:
Luminol is easily oxidized by reactive species produced during neutrophils’ oxidative burst, resulting in a chemiluminescent signal. The effect of the compounds under study on the modulation of neutrophil oxidative burst was determined after stimulation with PMA, a known neutrophil activator, because its effect is closely analogous to that obtained during the phagocytic process. Following a previously reported method, in a 96-well plate, neutrophils were incubated in the dark at 37 °C for 5 min with luminol (500 μM) and the tested compounds (10–100 μM) or DMSO (final concentration 4%). Quercetin, a flavonoid known for its anti-inflammatory activity (0.3–5.0 μM), and the inhibitor of NADPH oxidase, DPI (0.01–10 μM), were used as controls. After incubation, PMA (160 nM) was added, and the chemiluminescence was measured in a microplate reader (Synergy HT, BIO-TEK Instruments, Inc., Winooski, VT, USA). Kinetic readings were initiated immediately after cell stimulation. Measurements were taken at the peak of the curve. […] Effects are expressed as the inhibition percentage of luminol oxidation. The results obtained represent at least three independent experiments. […]
3.4 Evaluation of neutrophils' oxidative burst
3.4.1 Oxidation of luminol
Luminol is easily oxidized by reactive species produced during neutrophils’ oxidative burst, resulting in a chemiluminescent signal. The eﬀect of the compounds under study on the modulation of neutrophil oxidative burst was determined after stimulation with PMA, a known neutrophil activator, because its eﬀect is closely analogous to that obtained during the phagocytic process. Following a previously reported method, in a 96-well plate, neutrophils were incubated in the dark at 37 °C for 5 minutes with luminol (500 µM) and the tested compounds (10 - 100 µM) or DMSO (ﬁnal concentration 4%). Quercetin, a ﬂavonoid known for its anti-inﬂammatory activity (0.3 - 5.0 µM), and the inhibitor of NADPH oxidase, DPI (0.01 - 10 µM), were used as positive and negative controls, respectively. After incubation, PMA (160 nM) was added, and the chemiluminescence was measured in a microplate reader (Synergy HT, BIO-TEK Instruments, Inc., Winooski, VT, USA). Kinetic readings were initiated immediately after cell stimulation. Measurements were taken at the […]
peak of the curve. […] Eﬀects are expressed as the inhibition percentage of luminol oxidation. The obtained results represent at least three independent experiments.

Experiment [2] has the same test system. Briefly: HOCl generation by PMA-stimulated neutrophils, oxidation of APF. The experiment is classed as cell-based. Particulars: PMA 160 nM, mean ± SEM. The procedure: APF is a non-fluorescent derivative of fluorescein, which is oxidized by HOCl, ONOO^−, and HO^• [87], in a concentration-dependent manner. Its selectivity was tested using the myeloperoxidase (MPO) inhibitor, 4-aminobenzoic acid hydrazide (ABAH). The addition of ABAH to human neutrophils, stimulated with PMA, decreased the APF-dependent fluorescence signal to the level of the control assay, ruling out the involvement of HO^• and ONOO^− [88]. The previously established methodology for monitoring oxidative burst modulation was adapted. In a 96-well plate, neutrophils (2 × 10^6 cells/mL) were incubated in the dark at 37 °C for 5 min with APF (2 μM) and the tested compounds (10–100 μM) or DMSO (4%). Quercetin (0.3–5.0 μM) and DPI (0.01–10 μM) were used as controls. After incubation, PMA (160 nM) was added, and the fluorescence (excitation at 495 nm and emission at 528 nm) was measured in a microplate reader (Synergy HT, BIO-TEK Instruments, Inc., Winooski, VT, USA). Kinetic readings were initiated immediately after the addition of APF. Obtained values correspond to the slope measured between 5 and 15 min. Effects are expressed as the percentage inhibition of APF oxidation. The results obtained represent at least three independent experiments.
APF is a non-ﬂuorescent derivative of ﬂuorescein, which is oxidized by HOCl, [20] ONOO-, and HO• [21] in a concentration- dependent manner. Its selectivity was tested using the myeloperoxidase (MPO) inhibitor, 4-aminobenzoic acid hydrazide (ABAH). The addition of ABAH to human neutrophils, stimulated with PMA, decreased the APF-dependent ﬂuorescence signal to the level of the control assay, ruling out the involvement of HO• and ONOO− [22]. The previously established methodology for monitoring oxidative burst modulation was adapted. In a 96-well plate, neutrophils (2 x 10^6 cells/mL) were incubated in the dark at 37 °C for 5 minutes with APF (2 µM) and the tested compounds (10 - 100 µM) or DMSO (4%). Quercetin (0.3 - 5.0 µM) and DPI (0.01 - 10 µM) were used as positive and negative controls, respectively. After incubation, PMA (160 nM) was added, and the ﬂuorescence (excitation at 495 nm and emission at 528 nm) was measured in a microplate reader (Synergy HT, BIO-TEK Instruments, Inc., Winooski, VT, USA). Kinetic readings were initiated immediately after the addition of APF. Obtained values correspond to the slope measured between 5 and 15 minutes. Eﬀects are expressed as the percentage inhibition of APF oxidation. The obtained results represent at least three independent experiments. […]
GraphPad Prism 6 software was used to plot the inhibition percentage versus compound concentration curves, enabling the determination of the concentration required to achieve 50% inhibition (IC50). GraphPad Prism 6 software was also used to perform all statistical analyses.
[…] was estimated by applying the one-way analysis (ANOVA), followed by the Bonferroni’s multiple comparisons test. In all cases, p-values < 0.05 were considered statistically signiﬁcant. The results are expressed as mean ± standard error of the mean (SEM).

A value given as a limit tells only on which side of the number the result lay.

For the molecule “3-Hydroxy-2-(galactopyranosyl)propyl dodecanoate [Compound 1e]”, in experiment [1] (PMA 160 nM, mean ± SEM), the IC50 (commonly the concentration needed to halve the response being measured) is 83 ± 7 µM. Further, the “APF: highest obtained % of inhibition” value in experiment [2] (at 50 µM) is reported as less than 20% ^50µM.

Regarding “3-Hydroxy-2-galactopyranosylpropyl dioctyl phosphate [Compound 1b]”, the “Luminol: highest obtained % of inhibition” value in experiment [1] (at 25 µM, PMA 160 nM, mean ± SEM) was found to be 36 ± 9% ^25µM. For the same molecule, in experiment [2] (at 25 µM), the “APF: highest obtained % of inhibition” value was determined as 29 ± 10% ^25µM.

As to `OCC(CO)OC1OC(CO)C(O)C(O)C1O` [Compound 1a, 2-O-D-(galactopyranosyl)glycerol], the inhibition (commonly the change of the read-out against control, counted positive when it falls) at 100 µM in experiment [1] (Homo sapiens, Neutrophil, at 100 µM, PMA 160 nM, mean ± SEM, read-out: Luminol: highest obtained % of inhibition) was 34 ± 7%. In addition, the “Effect on oxidative burst measured by luminol (in words)” value in experiment [1] (PMA-induced) is on record as “no relevant activity”. In experiment [2] (Homo sapiens, Neutrophil, at 50 µM, read-out: APF: highest obtained % of inhibition), the inhibition at 50 µM worked out at 27 ± 6%.

Turning to `CCCCCCCCCCCC(=O)OCC(CO)OC1OC(COP(=O)(OCCN)OCCN)C(O)C(O)C1O` (stereo not drawn) [Compound 1h, 2-(6-(bis(2-Aminoethoxy))phosphoryl)galactopyranosyl-3-hydroxypropyl dodecanoate], the inhibition at 25 µM is 27 ± 15% in experiment [1] (Homo sapiens, Neutrophil, at 25 µM, PMA 160 nM, mean ± SEM, read-out: Luminol: highest obtained % of inhibition) and less than 20% in experiment [2] (Homo sapiens, Neutrophil, at 25 µM, read-out: APF: highest obtained % of inhibition).

The values above are taken from article PMC12251482, “Floridoside Phosphotriester Derivatives: Synthesis and Inhibition of Human Neutrophils’ Oxidative Burst” (Molecules, 2025).
